Results published in patent US20050187581A1, “Methods of treating disorders with electric fields” (priority 2000, published 2005).
Read-outs that look alike come from different tables or passages of the source.

Legend:
[1] = Antioxidant activity (AOA) of plasma from AAPH-treated rats, against BHP; type: in vivo, Sprague-Dawley rats; settings: for Plasma antioxidant activity against BHP: ascorbic acid 500 mg/kg p.o., SOD 50 mg/kg s.c., mean ± SEM, n=8
Protocol: (§1) To examine the effects of EF effect during oxidative stress, rats were divided into five groups (n=8) as follows: 1) non-treatment; 2) treatment with the oxidizing agent, AAPH, on experimental day seven; 3) co-treatment with EF and AAPH; 4) co-treatment with AAPH and the anti-oxidant agent, ascorbic acid; or 5) co-treatment with AAPH and superoxide dismutase. Rats of Group 3 were exposed to a sine wave of 50 Hz, 17,500 V/m intensity, 15 minutes per day for one week. In addition, Groups 1, 2, 4 and 5 were sham EF exposed, in which were maintained for an equal period of time inside the exposure cage with the system turned off. On the seventh day after EF was started, Group 3 was exposed to EF just after administration of AAPH (10 mg/kg, i.p.). In Group 4, ascorbic acid (500 mg/kg, p.o.) was administered 60 minutes before of the AAPH treatment. Superoxide dismutase (50 mg/kg, s.c., Nacalai Tesque, Tokyo, Japan) was administered to Group 5 just before the AAPH treatment. Under pentobarbital (45 mg/kg, i.p.) anesthesia, blood was collected from the abdominal cava vein 90 minutes later after AAPH administration, and the plasma was separated by centrifugation at 1,670×g for 10 minutes at 4° C. The plasma samples were stored at −80° C. until tested.
(§2) Plasma AOA was measured by a method using a derivative of methylene blue. Briefly, 0.1 ml plasma or a solution of ascorbic acid (Wako Ltd., Osaka, Japan) and 0.65 ml distilled water was added into 1.5 ml of Good's buffer adjusted to pH 5.8 (Good et al., 1966), including 1% triton X-100 supplemented with 3,7-bis-demethylamino-10-methyl carbamoyl phenothiazine (MCDP, 40 μM, KYOWA MEDEX Co., Ltd., Tokyo, Japan) and hemoglobin (67.5 μg/ml). After incubation for one minute at 37° C., 0.25 ml of tert-butylhydroperoxide (84 μM, BHP, Aldrich) as an alkoxyl radical initiator was added and reacted for 10 minutes at 37° C. In addition, AOA measurements in a reaction using AAPH (50 mM) as a peroxy radical initiator were conducted in Good's buffer without hemoglobin for 20 minutes at 37° C. A radical initiator not trapped by an antioxidant in each plasma sample will oxidize MCDP. The absorbance of the resultant blue color was subsequently measured by absorbance at 675 nm using a spectrophotometer (150-20, Hitachi). The equation to calculate AOA was the following: AOA (%)=(1−Abs1/Abs2)×100, where Abs1 is the absorbance of the plasma sample, and Abs2 is a value of the blank.

[2] = Antioxidant activity (AOA) of plasma from AAPH-treated rats, against AAPH; type: in vivo, Sprague-Dawley rats; settings: for AOAAAPH: ascorbic acid 500 mg/kg p.o., SOD 50 mg/kg s.c., mean ± SEM, n=8
Protocol: as §1, §2

[3] = Antioxidant activity (AOA) of rat plasma, ascorbic acid added in the test tube, BHP as radical initiator; type: biochemical, Sprague-Dawley rats
Protocol: (§3) To examine the effects of EF on unstressed rats, rats were exposed to a sine wave of 50 Hz, 17,500 V/m intensity, 15 minutes per day for 1 one week. Each rat in three groups (n=5) was individually treated with an EF or a sham EF, or was not treated. Rats exposed to sham EF were maintained for an equal period of time inside the exposure cage with the system turned off. Under pentobarbital (45 mg/kg, i.p.) anesthesia, blood was collected from the abdominal cava vein after EF exposure on experimental day seven, and the plasma was separated by centrifugation at 1,670×g for 10 minutes at 4° C. The plasma samples were stored at −80° C. until tested.
(§4) Plasma AOA was measured by a method using a derivative of methylene blue. Briefly, 0.1 ml plasma or a solution of ascorbic acid (Wako Ltd., Osaka, Japan) and 0.65 ml distilled water was added into 1.5 ml of Good's buffer adjusted to pH 5.8 (Good et al., 1966), including 1% triton X-100 supplemented with 3,7-bis-demethylamino-10-methyl carbamoyl phenothiazine (MCDP, 40 μM, KYOWA MEDEX Co., Ltd., Tokyo, Japan) and hemoglobin (67.5 μg/ml). […] The absorbance of the resultant blue color was subsequently measured by absorbance at 675 nm using a spectrophotometer (150-20, Hitachi). The equation to calculate AOA was the following: AOA (%)=(1−Abs1/Abs2)×100, where Abs1 is the absorbance of the plasma sample, and Abs2 is a value of the blank.

[4] = Antioxidant activity (AOA) of rat plasma, ascorbic acid added in the test tube, AAPH as radical initiator; type: biochemical, Sprague-Dawley rats
Protocol: as §3, §4

AAPH-treated rats = assay: Plasma lipid peroxide (TBARS) levels in AAPH-treated rats; type: in vivo, Sprague-Dawley rats; settings: for Plasma levels of lipid peroxide compared to the sham EF-exposed group: AAPH-treated rats, P<0.05 (ascorbic acid), P<0.01 (superoxide dismutase); for Malondialdehyde concentration: plasma lipid peroxide, AAPH 10 mg/kg i.p., ascorbic acid 500 mg/kg p.o., SOD 50 mg/kg s.c., mean ± SEM, n=8
Protocol: as §1
Thiobarbituric acid reactive substance (TBARS), as an indicator of the plasma concentration of lipid peroxide, was measured using a commercialized kit (Lipid peroxide-test Wako, Wako Ltd., Osaka, Japan).

[5] = molecular target: T1, human calcium receptor protein (HuPCaR) (Homo sapiens, UniProt P41180); assay: FURA2 ratio fluorimetry of HuPCaR cells on stepwise additions of extracellular CaCl2; type: cell-based
T1 construct: expressed in transfected cells; host or cells: HEK (human embryonic kidney) cells, stably transfected
T1 sequence (P41180 20-1078): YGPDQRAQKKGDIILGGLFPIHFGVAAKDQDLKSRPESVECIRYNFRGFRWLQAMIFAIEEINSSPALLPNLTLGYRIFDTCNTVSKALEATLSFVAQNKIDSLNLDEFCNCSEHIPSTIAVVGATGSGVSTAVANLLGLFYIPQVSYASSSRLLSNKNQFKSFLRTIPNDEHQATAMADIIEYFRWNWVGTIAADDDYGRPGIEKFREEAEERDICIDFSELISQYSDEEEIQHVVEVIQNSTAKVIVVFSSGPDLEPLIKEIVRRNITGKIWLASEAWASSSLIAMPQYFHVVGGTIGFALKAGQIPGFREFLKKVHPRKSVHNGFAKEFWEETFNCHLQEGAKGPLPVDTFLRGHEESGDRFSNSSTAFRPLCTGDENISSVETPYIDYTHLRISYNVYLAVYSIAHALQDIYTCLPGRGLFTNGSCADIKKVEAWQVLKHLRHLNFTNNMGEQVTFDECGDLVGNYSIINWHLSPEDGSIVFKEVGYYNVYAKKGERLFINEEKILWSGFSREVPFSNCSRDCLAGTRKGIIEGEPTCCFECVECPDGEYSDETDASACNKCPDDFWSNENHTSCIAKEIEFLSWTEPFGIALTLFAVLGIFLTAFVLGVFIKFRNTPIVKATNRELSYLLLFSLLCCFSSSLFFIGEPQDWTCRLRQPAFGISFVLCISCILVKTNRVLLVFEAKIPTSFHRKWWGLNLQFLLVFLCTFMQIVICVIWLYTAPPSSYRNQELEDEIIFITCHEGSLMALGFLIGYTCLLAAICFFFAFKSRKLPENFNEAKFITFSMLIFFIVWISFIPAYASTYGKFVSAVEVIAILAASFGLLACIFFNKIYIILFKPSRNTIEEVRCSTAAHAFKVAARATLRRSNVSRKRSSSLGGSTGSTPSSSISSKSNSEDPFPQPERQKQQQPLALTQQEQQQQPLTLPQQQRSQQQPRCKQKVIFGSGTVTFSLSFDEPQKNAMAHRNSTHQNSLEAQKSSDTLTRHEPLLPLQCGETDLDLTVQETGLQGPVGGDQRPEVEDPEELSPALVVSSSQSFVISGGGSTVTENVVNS
Protocol: In selected experiments, ionomycin (1 micromolar final concentration-stock dissolved in dimethyl sulfoxide) was added in order to quantify differences in FURA2 ratio fluorescence. Ionomycin was added to the cells to obtain a maximal fluorescence signal from the FURA2 for purposes of quantification. FIG. 15 outlines the experimental system that was utilized to obtain the data described below. Cultured HEK or HuPCaR cells were loaded with FURA2 after their growth on plastic tissue culture dishes, scraped and rinsed in buffer to create a cell suspension that was then divided into various aliquots. Selected aliquots were exposed to EF in the EF exposure device. Subsequent to either EF exposure or sham control (no EF) treatments, aliquots of cells were used for standard ratio imaging fluorimetry analysis to measure changes in intracellular Ca^2+ concentrations. Initially, measurements were obtained of the baseline intracellular Ca^2+ concentration for each aliquot of cells as shown by the bracket marked #1 in FIG. 15. […] In an effort to obtain more quantitative data from individual aliquots within an individual experiment as well as comparison of data from different experiments, we incorporated the use of ionomycin as shown in FIG. 13 to determine the maximal FURA2 signal achievable within each aliquot of cells. […]

mouse splenocytes = assay: [Ca^2+]c-high cells in lectin-stimulated mouse splenocytes, fluo-3 flow cytometry; type: cell-based, BALB/c mice; settings: 5 μg/ml PHA, 1 mM CaCl2; EF-exposed and unexposed cells
Protocol: In order to avoid contact of the cells and the lower electrode, polycarbonate membrane (Isopore, MILLIPORE, MA USA) was placed between the dish and the insert. Approximately 1 ml of the cell suspension was poured into culture well/space and covered with a lid.
Female BALB/c mice, 4-7 wk old obtained from CLEA Inc. (Tokyo, Japan) maintained in a conventional animal house equipped with clean air-filtering device were splenectomized under anesthesia, and cell suspensions of splenocytes were prepared. To examine cell viability, the cells were cultivated in Dulbecco's modified Eagle's medium (SIGMA, MO, USA) supplemented with 10% fetal bovine serum (FSB). The cells were maintained in Hank's balanced salt solution (HBSS) (SIGMA, MO, USA) during examination for [Ca^2+]c which was carried out within 4 hr after cell preparation. Cells were stored at 4 degree C. prior to use.
Splenocytes (10^6 cells/ml) were incubated for 20 min at 37 degrees C. in HBSS containing 2.5 μM fluo-3-acetoxylmethyl (Molecular Probes, USA) [Vandenberghe et al., 1990]. The cell suspension was then diluted 5 times with HBSS containing 1% FBS, incubated for 40 min at 37 degrees C., washed 3 times with assay buffer, and the cells were then suspended in the assay buffer at a concentration of 1×10^6/ml. Throughout the cell preparation, the cell suspensions were mixed gently.
Considering the reported synergistic interaction between EMF and mitogen (Walleczek and Liburdy, 1990), concanavalin-A (Con-A) (Seikagaku Co., Tokyo, Japan) and phytohemaglutinin (PHA) (SIGMA, MO, USA) were used.
Taking into account the results of the viability test for exposed murine splenocytes earlier assayed, we chose to use the optimum culture and exposure conditions (60 Hz, 6 μA/cm^2 EF) in carrying out the following five experiments: • (1) cells suspended in HEPES-buffered saline (BS)+1 mM CaCl2 were exposed to EF for a total of 40 min, and 12.5 μg/ml of Con-A was added after the first 8 min of exposure. The control groups consisted of EF-unexposed cells containing Con-A, and EF-exposed cells without Con-A. Percent [Ca^2+]c-high cells was checked at certain exposure points; • (2) cells in HEPES-BS+1 mM CaCl2 were exposed for a total of 12 min, and different concentrations (1 ng-12.5 μg/ml) of Con-A were added after the first 4 min of exposure. The control group was essentially the same as that of the experimental group but without EF-exposure; • (3) cells in HEPES-BS+1 mM CaCl2 were exposed for a total of 8 min, and 5 μg/ml of PHA was added after the first 4 min of exposure. The control groups consisted of EF-unexposed cells containing PHA, and EF-exposed cells without PHA; • (4) cells suspended in HEPES-BS without CaCl2 were exposed for a total of 12 min, and different concentrations (1 ng-5 μg/mil) of Con-A were added after the first 4 min of exposure. The control group was essentially the same as the experimental group but without EF exposure; and • (5) to evaluate the persistent effect of EF exposure, cells suspended in HEPES-BS+[…] were exposed for a total of 4 min, after which different concentrations (0.025-12.5 μg/ml) of Con-A were added, and the generation of [Ca^2+]c-high cells for the next 8 min without EF exposure was monitored with flow cytometry. The control was essentially the same as the experimental group but without any EF-exposure. Statistical Analysis

[6] = added to plasma of the non-treatment group, P<0.01
[7] = ascorbic acid 440 ng/ml added to plasma of non-treatment group, mean ± SEM, n=5

## CC(C)(N=NC(C)(C)C(=N)N)C(=N)N.Cl.Cl [AAPH, 2,2′-azobis(2-amidinopropane)dihydrochloride]
[1]; AAPH 10 mg/kg i.p.
  Change in plasma AOA against BHP in rats treated with AAPH: did not show any changes
[2]; AAPH 10 mg/kg i.p.
  Change in plasma AOA against AAPH in rats treated with AAPH: suppression

## O=C1O[C@H]([C@@H](O)CO)C(O)=C1O [Ascorbic acid, ascorbic acid]
[1]; AAPH-treated rats, P<0.01
  AOA against BHP compared to the other four groups: increase
[1]; AAPH-treated rats
  Plasma antioxidant activity against BHP: 87.5 ± 0.3 %
[3]; [6]
  AOA of plasma against BHP after addition of ascorbic acid: significantly elevated
[3]; [7]
  AOABHP: 87.7 ± 0.3 %
[4]; [6]
  AOA of plasma against AAPH after addition of ascorbic acid: significantly elevated
[4]; [7]
  AOAAAPH: 62.0 ± 3.8 %
[2]; AAPH-treated rats, P<0.01
  Plasma AOA compared to the other four groups: significantly higher
[2]; AAPH-treated rats
  AOAAAPH: 46.3 ± 3.2 %
AAPH-treated rats
  Plasma levels of lipid peroxide compared to the sham EF-exposed group: lower
  Malondialdehyde concentration: 1.509 ± 0.05 nmol/mL

## [Ca+2].[Cl-].[Cl-] [Ca^2+, CaCl2]
[5]; FURA2 response method of Quinn et al., read-out: EC50 value for Ca^2+ derived using the method outlined in FIG. 20
  EC50: 3.5 mM
[5]; calculated from Na+/Ca2+ ratio midpoint 36.6, Standard Experimental Buffer of 125 mM NaCl, FURA2 baseline, read-out: EC50 value for Ca
  EC50: 3.5 mM

## superoxide dismutase [SOD]
[1]; AAPH-treated rats
  Plasma antioxidant activity against BHP: 78.0 ± 2.1%
[2]; AAPH-treated rats
  Plasma AOA compared to the sham EF-exposed group: not different
  AOAAAPH: 22.1 ± 2.5%
[2]; AAPH-treated rats, P<0.05
  Plasma AOA compared to the non-treatment group: significantly suppressed
AAPH-treated rats
  Plasma levels of lipid peroxide compared to the sham EF-exposed group: lower
  Malondialdehyde concentration: 1.139 ± 0.10 nmol/mL

## phytohemaglutinin [PHA]
Mouse splenocytes
  [Ca^2+]c-high cells: significant increases
